The source of these data is patent US10730868B2, “Bicyclic heteroaryl substituted compounds” (BRISTOL-MYERS SQUIBB COMPANY, priority 2016, dated 2020).

The target of one assay is PAR4 (Homo sapiens (Human), UniProt Q96RI0). Nature of the assay: PAR4 FLIPR assay (antagonism of agonist-peptide-induced calcium mobilization). In kind it is cell-based. To be noted: H-Ala-Phe(4-F)-Pro-Gly-Trp-Leu-Val-Lys-Asn-Gly-NH2-induced intracellular calcium mobilization, PAR4-expressing HEK293 cells; read-out: PAR4 FLTPR assay (IC50). The source says: The Fluorometric Imaging Plate Reader (FLIPR) assay is an exemplary in vitro assay for measuring the activity of the PAR4 antagonists of the present invention. In this assay, intracellular calcium mobilization is induced in PAR4 expressing cells by a PAR4 agonist and calcium mobilization is monitored.
Sequence of PAR4 (Q96RI0 18-385): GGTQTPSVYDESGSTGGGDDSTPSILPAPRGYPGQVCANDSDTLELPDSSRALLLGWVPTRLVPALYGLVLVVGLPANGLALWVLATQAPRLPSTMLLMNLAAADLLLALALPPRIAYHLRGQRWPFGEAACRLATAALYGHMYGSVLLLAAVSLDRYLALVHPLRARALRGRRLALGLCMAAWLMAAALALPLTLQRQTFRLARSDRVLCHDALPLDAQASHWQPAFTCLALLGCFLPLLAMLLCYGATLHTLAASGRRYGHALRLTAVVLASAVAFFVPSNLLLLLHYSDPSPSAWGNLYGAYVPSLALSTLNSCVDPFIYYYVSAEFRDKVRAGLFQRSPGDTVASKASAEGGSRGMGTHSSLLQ
HEK293 cells stably expressing PAR4 were generated by a standard method of transfection of human PAR4 (F2R23) cDNA expression vector and selected based on PAR4 protein expression or mRNA expression. […] These cells also express endogenous PAR1 and can elicit calcium signal upon stimulation with PAR1 agonist peptide. Therefore, the same cells were also used to determine selectivity against PAR1 and agonist activity for both receptors. Cells from HEK293 PAR4 Clone 1.2A (BMS Arctic ID 383940) were propagated and used for calcium mobilization studies.
FLIPR-based calcium mobilization assay in HEK293 cells was used to measure PAR4 antagonism agonism, and selectivity against PAR1. The activity of the PAR4 antagonists of the present invention were tested in PAR4 expressing cells by monitoring H-Ala-Phe(4-F)-[…]NH2-induced intracellular calcium mobilization. Counter screens for agonist activity and PAR1 antagonist activity were also performed. Briefly, PAR/PAR4-expressing HEK293 cells were grown in DMEM (Life Technology, Grand Island, N.Y.) containing 10% heat-inactivated FBS, 1% Penicillin-Streptomycin, 10 μg/mL blasticidin, and 100 μg/mL Zeocin at 37° C. with 5% CO2. Cells were plated overnight prior to the experiment in a black 384-well Purecoat Amine clear bottom plate (Becton Dickinson Biosciences, San Jose, Calif.) at 10,000 cells/well in 30 μL growth medium and incubated in a humidified chamber at 37° C. with 5% CO2 overnight. Prior to compound addition, the cell medium was replaced with 40 μL of 1× calcium and magnesium-containing Hank's Balanced Saline Solution (HBSS) (with 20 mM HEPES) and 1:1000 diluted fluorescent calcium indicator (Codex Biosolutions, Gaithersburg, Md.). After a 30 minute incubation period at 37° C. and a further 30 minute incubation and equilibration period at room temperature, 20 μL test compound (diluted in 1×HBSS buffer) was added at various concentrations at 0.17% dimethyl sulfoxide (DMSO) final concentration. Changes in fluorescence intensity were measured using a Functional Drug Screening System (FDSS, Hamamatsu, Japan) to determine agonist activities. The cells were then incubated for 30 minutes at room temperature followed by addition of 20 μL of agonist peptide for antagonist activity measurement. […] Compound potency was derived from 11-point concentration-response curves.
On the technique in general: A change in cytosolic calcium serves as a functional read-out for many receptors and channels.
Take `COc1cnc2c(-c3nc4cc(F)c(O[C@H]5CC(F)(F)CC[C@H]5OC(=O)Nc5ccc(C(=O)NCC(C)(C)O)nc5)cc4s3)cc(C)cc2n1` [Example 2]: the IC50 (in general, the concentration that gives 50% inhibition) was 0.46 nM.
Turning to `COc1cnc2c(-c3nc4cc(F)c(O[C@H]5CC(F)(F)CC[C@H]5OC(=O)Nc5cnc(CCO)nc5)cc4s3)cc(C)cc2n1` [Example 3], the IC50 worked out at 0.82 nM.
Turning to `COc1cnc2c(-c3nc4cc(F)c(O[C@H]5CC(F)(F)CC[C@H]5OC(=O)Nc5cnc(C)nc5)cc4s3)cc(C)cc2n1` [Example 4], the IC50 was 1.9 nM.
As for `COc1cnc2c(-c3nc4cc(F)c(O[C@H]5CC(F)(F)CC[C@H]5OC(=O)Nc5ccc(CCO)nc5)cc4s3)cc(C)cc2n1` [Example 5], the IC50 amounted to 6.8 nM.
For the compound `COc1cnc2c(-c3nc4cc(F)c(O[C@H]5CC(F)(F)CC[C@H]5OC(=O)Nc5ccc(CO)nc5)cc4s3)cc(C)cc2n1` [Example 6], the IC50 stood at 0.76 nM.
Consider `COc1cnc2c(-c3nc4cc(F)c(O[C@H]5CC(F)(F)CC[C@H]5OC(=O)Nc5ccnc(OCCC(C)(C)O)c5)cc4s3)cc(C)cc2n1` [Example 8], for which the IC50 was determined as 1.2 nM.
Consider `COc1cnc2c(-c3nc4cc(F)c(O[C@H]5CC(F)(F)CC[C@H]5OC(=O)Nc5ccnnc5)cc4s3)cc(C)cc2n1` [Example 9], for which the half-inhibitory concentration (IC50) came out at 12 nM.
As for `COc1cnc2c(-c3nc4cc(F)c(O[C@H]5CC(F)(F)CC[C@H]5OC(=O)Nc5cnc(CO)nc5)cc4s3)cc(C)cc2n1` [Example 10], the IC50 was 23 nM.
`COc1cnc2c(-c3nc4cc(F)c(O[C@@H]5CC(F)(F)CC[C@@H]5OC(=O)Nc5cnc(C)nc5)cc4s3)cc(C)cc2n1` [Example 13]: the half-maximal inhibitory concentration (IC50) came to 110 nM.
Turning to `COc1cnc2c(-c3nc4cc(F)c(O[C@H]5CC(F)(F)CC[C@H]5OC(=O)Nc5cnc(OCCO)nc5)cc4s3)cc(C)cc2c1` [Example 15, (1R, 2S)-4,4-difluoro-2-((5-fluoro-2-(3-methoxy-6-methylquinolin-8-yl)benzo[d]thiazol-6-yl)oxy)cyclohexyl (2-(2-hydroxyethoxy)pyrimidin-5-yl)carbamate], the IC50 is 0.77 nM.
For the compound `COc1cnc2c(-c3nc4cc(F)c(O[C@H]5CC(F)(F)CC[C@H]5OC(=O)Nc5cnc(OCCO)nc5)cc4s3)cc(Cl)cc2c1` [Example 16, (1R,2S)-2-((2-(6-chloro-3-methoxyquinolin-8-vi)-5-fluorobenzo[d]thiazol-6-yl)oxy)-4,4-difluorocyclohexyl (2-(2-hydroxyethoxy)pyrimidin-5-yl)carbamate], the IC50 came to 1.3 nM.
The same measure, in the same setting: as for `COc1cnc2c(-c3nc4cc(F)c(O[C@H]5CC(F)(F)CC[C@H]5OC(=O)Nc5cnc(C)nc5)cc4s3)cc(Cl)cc2c1` [Example 17, (1R,2S)-2-((2-(6-chloro-3-methoxyquinolin-8-yl)-5-fluorobenzo[d]thiazol-6-yl)oxy)-4,4-difluorocyclohexyl (2-methylpyrimidin-5-yl)carbamate], the figure is 4.1 nM; as for `CCOc1cnc2c(-c3nc4cc(F)c(O[C@H]5CC(F)(F)CC[C@H]5OC(=O)Nc5cnc(C)nc5)cc4s3)cc(C)cc2n1` [Example 18, (1R,2S)-2-((2-(2-ethoxy-7-methylquinoxalin-5-yl)-5-fluorobenzo[d]thiazol-6-yl)oxy)-4,4-difluorocyclohexyl (2-methylpyrimidin-5-yl)carbamate], 3.9 nM; as for `COc1cnc2c(-c3nc4cc(F)c(O[C@H]5CC(F)(F)CC[C@H]5OC(=O)Nc5cnc(OCCOP(=O)(O)O)nc5)cc4s3)cc(C)cc2n1` [Example 19, (1R,2S)-4,4-difluoro-2-((5-fluoro-2-(2-methoxy-7-methylquinoxalin-5-yl)benzo[d]thiazol-6-yl)oxy)cyclohexyl (2-(2-(phosphonooxy)ethoxy)pyrimidin-5-yl)carbamate], 1 nM.
As for `COc1ccc(NC(=O)O[C@H]2CCC[C@H]2Oc2cc3sc(-c4cc(C)cc5nc(OC)cnc45)nc3cc2F)cn1` [Example 23], the IC50 amounted to 30 nM.
On the same count and under the same terms, then `COc1ccc(NC(=O)O[C@@H]2CCC[C@@H]2Oc2cc3sc(-c4cc(C)cc5nc(OC)cnc45)nc3cc2F)nc1` [Example 24], with 7.8 nM.
As to `COc1ccc(NC(=O)O[C@@H]2CCC[C@@H]2Oc2cc3sc(-c4cc(C)cc5nc(OC)cnc45)nc3cc2F)cc1` [Example 25], the concentration for half-maximal inhibition (IC50) was determined as 1.3 nM.
In the case of `COc1cnc2c(-c3nc4cc(F)c(O[C@H]5CCC[C@H]5OC(=O)Nc5ncc(C)cn5)cc4s3)cc(C)cc2n1` [Example 26], the IC50 was determined as 83 nM.
As for `COc1cnc2c(-c3nc4cc(F)c(O[C@@H]5CCC[C@@H]5OC(=O)Nc5cnc(C)nc5)cc4s3)cc(C)cc2n1` [Example 27], the IC50 amounted to 58 nM.
For `COc1cnc2c(-c3nc4cc(F)c(O[C@H]5CCC[C@H]5OC(=O)NC(C)C)cc4s3)cc(C)cc2n1` [Example 29], the IC50 amounted to 12 nM.
As to `COc1cnc2c(-c3nc4cc(F)c(O[C@H]5CCC[C@H]5OC(=O)Nc5ccnc(C)c5)cc4s3)cc(C)cc2n1` [Example 30], the IC50 is 2.6 nM.
Regarding `COc1cnc2c(-c3nc4cc(F)c(O[C@H]5CCC[C@H]5OC(=O)Nc5ccc(CO)nc5)cc4s3)cc(C)cc2n1` [Example 31], the half-maximal inhibitory concentration (IC50) is 1.1 nM.
As to `COc1cnc2c(-c3nc4cc(F)c(O[C@H]5CCC[C@H]5OC(=O)Nc5ccc(C)nc5)cc4s3)cc(C)cc2n1` [Example 32], the half-maximal inhibitory concentration (IC50) came out at 2.6 nM.
For the compound `COc1cnc2c(-c3nc4cc(F)c(O[C@H]5CCC[C@H]5OC(=O)Nc5cncc(C#N)c5)cc4s3)cc(C)cc2n1` [Example 34], the IC50 turned out to be 1.6 nM.
Consider `COc1cnc2c(-c3nc4cc(F)c(O[C@H]5CCC[C@H]5OC(=O)Nc5ccc(C#N)nc5)cc4s3)cc(C)cc2n1` [Example 36], for which the half-maximal inhibitory concentration (IC50) is 2.4 nM.
In the case of `COc1cnc2c(-c3nc4cc(F)c(O[C@H]5CCC[C@H]5OC(=O)Nc5cnc(C)nc5)cc4s3)cc(C)cc2n1` [Example 37], the half-maximal inhibitory concentration (IC50) was 4 nM.
On to `COc1cnc2c(-c3nc4cc(F)c(O[C@H]5CCC[C@H]5OC(N)=O)cc4s3)cc(C)cc2n1` [Example 39], for which the concentration for half-maximal inhibition (IC50) is 400 nM.
As to `COC(=O)c1ccc(NC(=O)O[C@@H]2CCC[C@@H]2Oc2cc3sc(-c4cc(C)cc5nc(OC)cnc45)nc3cc2F)cn1` [Example 47, methyl 5-(((((1R,2S)-2-((5-fluoro-2-(2-methoxy-7-methylquinoxalin-5-yl)benzo[d]thiazol-6-yl)oxy)cyclopentyl)oxy)carbonyl)amino)picolinate], the IC50 was 4.2 nM.
As for `CNC(=O)c1ccc(NC(=O)O[C@@H]2CCC[C@@H]2Oc2cc3sc(-c4cc(C)cc5nc(OC)cnc45)nc3cc2F)cn1` [Example 48, (1R,2S)-2-((5-fluoro-2-(2-methoxy-7-methylquinoxalin-5-yl)benzo[d]thiazol-6-yl)oxy)cyclopentyl (6-(methylcarbamoyl)pyridin-3-yl)carbamate], the IC50 is 2.4 nM.
As for `COc1cnc2c(-c3nc4cc(F)c(O[C@H]5CCC[C@H]5OC(=O)Nc5ccc(C(N)=O)nc5)cc4s3)cc(C)cc2n1` [Example 49, (1R,2S)-2-((5-fluoro-2-(2-methoxy-7-methylquinoxalin-5-yl)benzo[d]thiazol-6-yl)oxy)cyclopentyl (6-carbamoylpyridin-3-yl)carbamate], the IC50 amounted to 3.6 nM.
Take `COc1cnc2c(-c3nc4cc(F)c(O[C@H]5CCC[C@H]5OC(=O)Nc5ccc(C(=O)N(C)C)nc5)cc4s3)cc(C)cc2n1` [Example 50, (1R,2S)-2-((5-fluoro-2-(2-methoxy-7-methylquinoxalin-5-yl)benzo[d]thiazol-6-yl)oxy)cyclopentyl (6-(dimethylcarbamoyl)pyridin-3-yl)carbamate]: the half-maximal inhibitory concentration (IC50) worked out at 3.4 nM.
Regarding `COC(=O)c1ncc(NC(=O)O[C@@H]2CCC[C@@H]2Oc2cc3sc(-c4cc(C)cc5nc(OC)cnc45)nc3cc2F)cn1` [Example 51, methyl 5-(((((1R,2S)-2-((5-fluoro-2-(2-methoxy-7-methylquinoxalin-5-yl)benzo[d]thiazol-6-yl)oxy)cyclopentyl)oxy)carbonyl)amino)pyrimidine-2-carboxylate], the IC50 stood at 6.8 nM.

Staying with this assay, now noted: H-Ala-Phe(4-F)-[…]NH2-induced intracellular calcium mobilization, PAR4-expressing HEK293 cells; read-out: PAR4 FLTPR assay (IC50).
For the compound `COc1ccc(NC(=O)O[C@@H]2CCC[C@@H]2Oc2cc3sc(-c4cc(C)cc5nc(OC)cnc45)nc3cc2F)cn1` [Example 22, (1R,2S)-2-((5-fluoro-2-(2-methoxy-7-methylquinoxalin-5-yl)benzo[d]thiazol-6-yl)oxy)cyclopentyl (6-methoxy pyridin-3-yl)carbamate], the half-inhibitory concentration (IC50) worked out at 2.4 nM.
